Assay results reported in patent publication EP4273147A1, “SUBSTITUTED SPIROLACTAMS, SALTS THEREOF AND THEIR USE AS HERBICIDALLY ACTIVE SUBSTANCES” (Bayer Aktiengesellschaft, priority 2022, dated 2023).
Blank lines part the entries; values can stand above or below the molecule they belong to.

Columns and labels:
ECHCG [1] = assay: Herbicidal post-emergence action (Table B3); format: in vivo, Echinochloa crus-galli; conditions: rated visually after about 3 weeks
Procedure, shortened: (§1)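 Percent herbicidal activity scored visually versus untreated controls, with 100% meaning dead plants. Scoring took place ~3 weeks after post-emergence treatment of one-leaf-stage weeds grown in sandy loam pots in a greenhouse.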

VERPE [2] = assay: Herbicidal post-emergence action (Table B10); format: in vivo, Veronica persica
Procedure, shortened: as §1

SETVI [3] = assay: Herbicidal pre-emergence action (Table A5); format: in vivo, Setaria viridis; conditions: application rate 320 g/ha; visual grading after ca. 3 weeks
Procedure, shortened: (§2)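 Sown in sandy loam in pots and covered with soil: weed seeds, two species per pot, one of each plant class (mono- and dicotyledonous).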

ALOMY [4] = assay: Herbicidal pre-emergence action (Table A9); format: in vivo, Alopecurus myosuroides; conditions: application rate 1280 g/ha; visual grading after ca. 3 weeks
Procedure, shortened: as §2

LOLRI [5] = assay: Herbicidal pre-emergence action (Table A3); format: in vivo, Lolium rigidum; conditions: visual grading after ca. 3 weeks
Procedure, shortened: as §2

POAAN [6] = assay: Herbicidal pre-emergence action (Table A7); format: in vivo, Poa annua
Procedure, shortened: as §2

ECHCG [7] = assay: Herbicidal pre-emergence action (Table A2); format: in vivo, Echinochloa crus-galli; conditions: visual grading after ca. 3 weeks
Procedure, shortened: as §2

SETVI [8] = assay: Herbicidal post-emergence action (Table B8); format: in vivo, Setaria viridis
Procedure, shortened: as §1

MATIN [9] = assay: Herbicidal pre-emergence action (Table A4); format: in vivo, Matricaria inodora; conditions: visual grading after ca. 3 weeks
Procedure, shortened: as §2

ALOMY [10] = assay: Herbicidal post-emergence action (Table B2); format: in vivo, Alopecurus myosuroides; conditions: application rate 1280 g/ha; rated visually after about 3 weeks
Procedure: (§3) Seeds of mono- and dicotyledonous weed plants were placed in plastic pots in sandy loam soil (doubly sown with in each case one species of mono- or dicotyledonous weed plants per pot), covered with soil and cultivated in a greenhouse under controlled growth conditions. 2 to 3 weeks after sowing, the test plants were treated at the one-leaf stage. […] After the test plants had been kept in the greenhouse under optimum growth conditions for about 3 weeks, the activity of the preparations was rated visually in comparison to untreated controls. For example, 100% activity = the plants have died, 0% activity = like control plants.

VERPE [11] = assay: Herbicidal pre-emergence action (Table A11); format: in vivo, Veronica persica; conditions: application rate 1280 g/ha; visual grading after ca. 3 weeks
Procedure, shortened: as §2

ECHCG [12] = assay: Herbicidal post-emergence action, section E (Table E5); format: in vivo, Echinochloa crus-galli; conditions: application rate 320 g/ha; assessed visually after ca. 3 weeks
Text: (§4) 2 to 3 weeks after sowing, the test plants were sprayed in the single-leaf stage.

MATIN [13] = assay: Herbicidal pre-emergence action, section C (Table C8); format: in vivo, Matricaria inodora; conditions: application rate 320 g/ha; visual grading after ca. 3 weeks
Text: (§5) Seeds of mono- and dicotyledonous weed plants and crop plants were sown, in plastic or organic planting pots, in sandy loam and covered with soil. The compounds according to the invention, formulated in the form of wettable powders (WP) or as emulsifiable concentrates (EC), were applied to the surface of the covering soil as aqueous suspension or emulsion, with the addition of 0.5% of an additive, at an application rate of 600 1 of water/ha (converted). Following treatment, the pots were placed in a greenhouse and kept under optimum growth conditions for the test plants.

VIOTR [14] = assay: Herbicidal post-emergence action, section E (Table E10); format: in vivo, Viola tricolor; conditions: application rate 320 g/ha; assessed visually after ca. 3 weeks
Text: as §4

DIGSA [15] = assay: Herbicidal pre-emergence action (Table A12); format: in vivo, Digitaria sanguinalis; conditions: application rate 320 g/ha; visual grading after ca. 3 weeks
Procedure, shortened: as §2

ZEAMX [16] = assay: Post-emergence effects on crop plants (Table F1); format: in vivo, Zea mays; conditions: application rate 320 g/ha, crop plant ZEAMX
Text: as §4

POLCO = assay: Herbicidal pre-emergence action, section C (Table C9); format: in vivo, Polygonum convolvulus; conditions: application rate 320 g/ha; visual grading after ca. 3 weeks
Text: as §5

ALOMY [17] = assay: Herbicidal post-emergence action, section E (Table E2); format: in vivo, Alopecurus myosuroides; conditions: application rate 320 g/ha; assessed visually after ca. 3 weeks
Text: as §4

STEME = assay: Herbicidal pre-emergence action (Table A6); format: in vivo, Stellaria media; conditions: application rate 320 g/ha; visual grading after ca. 3 weeks
Procedure, shortened: as §2

LOLRI [18] = assay: Herbicidal post-emergence action (Table B5); format: in vivo, Lolium rigidum; conditions: application rate 1280 g/ha; rated visually after about 3 weeks
Procedure: as §3

LOLRI [19] = assay: Herbicidal pre-emergence action, section C (Table C7); format: in vivo, Lolium rigidum; conditions: application rate 320 g/ha; visual grading after ca. 3 weeks
VERPE [20] = assay: Herbicidal pre-emergence action, section C (Table C11); format: in vivo, Veronica persica; conditions: application rate 320 g/ha; visual grading after ca. 3 weeks
VIOTR [21] = assay: Herbicidal pre-emergence action, section C (Table C12); format: in vivo, Viola tricolor; conditions: application rate 80 g/ha; visual grading after ca. 3 weeks
MATIN [22] = assay: Herbicidal post-emergence action (Table B6); format: in vivo, Matricaria inodora; conditions: application rate 1280 g/ha; rated visually after about 3 weeks
Procedure, shortened: as §1

KCHSC = assay: Herbicidal pre-emergence action (Table A10); format: in vivo, Kochia scoparia; conditions: application rate 320 g/ha; visual grading after ca. 3 weeks
Procedure, shortened: as §2

BRSNW [23] = assay: Pre-emergence effects on crop plants (Table D5); format: in vivo, Brassica napus; conditions: crop plant; application rate 80 g/ha; visual grading after ca. 3 weeks
ABUTH [24] = assay: Herbicidal pre-emergence action (Table A1); format: in vivo, Abutilon theophrasti; conditions: application rate 1280 g/ha; visual grading after ca. 3 weeks vs untreated controls (100% = plants have died off, 0% = as control plants)
Procedure, shortened: as §2

ECHCG [25] = assay: Herbicidal pre-emergence action, section C (Table C6); format: in vivo, Echinochloa crus-galli; conditions: application rate 80 g/ha; visual grading after ca. 3 weeks
AMARE = assay: Herbicidal pre-emergence action (Table A8); format: in vivo, Amaranthus retroflexus; conditions: application rate 1280 g/ha; visual grading after ca. 3 weeks vs untreated controls (100% = plants have died off, 0% = as control plants)
Procedure, shortened: as §2

ALOMY [26] = assay: Herbicidal pre-emergence action, section C (Table C2); format: in vivo, Alopecurus myosuroides; conditions: application rate 320 g/ha; visual grading after ca. 3 weeks
TRZAS [27] = assay: Pre-emergence effects on crop plants (Table D2); format: in vivo, Triticum aestivum; conditions: crop plant; application rate 80 g/ha; visual grading after ca. 3 weeks
TRZAS [28] = assay: Post-emergence effects on crop plants (Table F2); format: in vivo, Triticum aestivum; conditions: application rate 320 g/ha, crop plant TRZAS
Text: as §4

ORYZA [29] = assay: Post-emergence effects on crop plants (Table F3); format: in vivo, Oryza sativa; conditions: application rate 320 g/ha, crop plant ORYZA
Text: as §4

GLXMA = assay: Pre-emergence effects on crop plants (Table D4); format: in vivo, Glycine max; conditions: crop plant; application rate 320 g/ha; visual grading after ca. 3 weeks
ORYZA [30] = assay: Pre-emergence effects on crop plants (Table D3); conditions: crop plant; application rate 80 g/ha; visual grading after ca. 3 weeks
Text: Seeds of mono- and dicotyledonous weed plants and crop plants were sown, in plastic or organic planting pots, in sandy loam and covered with soil. The compounds according to the invention, formulated in the form of wettable powders (WP) or as emulsifiable concentrates (EC), were applied to the surface of the covering soil as aqueous suspension or emulsion, with the addition of 0.5% of an additive, at an application rate of 600 1 of water/ha (converted).
Following treatment, the pots were placed in a greenhouse and kept under optimum growth conditions for the test plants.

DIGSA [31] = assay: Herbicidal pre-emergence action, section C (Table C5); format: in vivo, Digitaria sanguinalis; conditions: application rate 80 g/ha; visual grading after ca. 3 weeks
ZEAMX [32] = assay: Pre-emergence effects on crop plants (Table D1); format: in vivo, Zea mays; conditions: crop plant; application rate 320 g/ha; visual grading after ca. 3 weeks
BRSNW [33] = assay: Post-emergence effects on crop plants (Table F5); format: in vivo, Brassica napus; conditions: application rate 80 g/ha, crop plant BRSNW
Text: as §4

ABUTH [34] = assay: Herbicidal pre-emergence action, section C (Table C1); format: in vivo, Abutilon theophrasti; conditions: application rate 320 g/ha; visual grading after ca. 3 weeks
Text: as §5

SETVI [35] = assay: Herbicidal pre-emergence action, section C (Table C10); format: in vivo, Setaria viridis; conditions: application rate 80 g/ha; visual grading after ca. 3 weeks
POAAN [36] = assay: Herbicidal post-emergence action (Table B7); format: in vivo, Poa annua; conditions: application rate 1280 g/ha
Procedure, shortened: as §1

[37] = application rate 320 g/ha, visual grading after ca. 3 weeks

SMILES: O=C1N(Cc2ccccc2Cl)CCCC12CCCN(Cc1cccc(F)c1F)C2=O (racemic) [I-018]
post-emergence activity against ECHCG (ECHCG [1]; application rate 320 g/ha): 90%
post-emergence activity against VERPE (VERPE [2]; application rate 320 g/ha): 90%
pre-emergence activity against SETVI (SETVI [3]): 90%
pre-emergence activity against ALOMY (ALOMY [4]): 90%
pre-emergence activity against LOLRI (LOLRI [5]; application rate 320 g/ha): 100%
pre-emergence activity against POAAN (POAAN [6]; pre-emergence, 1290 g/ha, 504 h): 100%
pre-emergence activity against ECHCG (ECHCG [7]; application rate 320 g/ha): 100%
post-emergence activity against SETVI (SETVI [8]; application rate 320 g/ha): 90%
pre-emergence activity against MATIN (MATIN [9]; application rate 1280 g/ha): 90%
post-emergence activity against ALOMY (ALOMY [10]): 90%

pre-emergence activity against BRSNW (BRSNW [23]): 20%
pre-emergence activity against TRZAS (TRZAS [27]): 0%
pre-emergence activity against GLXMA (GLXMA): 0%
pre-emergence activity against ORYZA (ORYZA [30]): 0%
pre-emergence activity against ZEAMX (ZEAMX [32]): 0%
SMILES: O=C1N(Cc2ccccc2F)CCC12CCCN(Cc1c(F)cccc1F)C2=O (racemic) [I-024]
pre-emergence activity against VERPE (VERPE [11]): 90%
post-emergence activity against ECHCG (ECHCG [12]): 90%
post-emergence activity against ECHCG (ECHCG [1]; application rate 1280 g/ha): 90%
pre-emergence activity against MATIN (MATIN [13]): 90%
post-emergence activity against VIOTR (VIOTR [14]): 80%
pre-emergence activity against SETVI (SETVI [3]): 100%
pre-emergence activity against DIGSA (DIGSA [15]): 100%
post-emergence activity against ZEAMX (ZEAMX [16]): 0%
pre-emergence activity against POLCO (POLCO): 90%
pre-emergence activity against ALOMY (ALOMY [4]): 90%
post-emergence activity against ALOMY (ALOMY [17]): 80%
pre-emergence activity against STEME (STEME): 90%
post-emergence activity against LOLRI (LOLRI [18]): 90%
pre-emergence activity against LOLRI (LOLRI [19]): 90%
pre-emergence activity against VERPE (VERPE [20]): 90%
pre-emergence activity against VIOTR (VIOTR [21]): 90%
post-emergence activity against MATIN (MATIN [22]): 90%
pre-emergence activity against LOLRI (LOLRI [5]; application rate 320 g/ha): 100%
pre-emergence activity against KCHSC (KCHSC): 90%
pre-emergence activity against ABUTH (ABUTH [24]): 90%
pre-emergence activity against ECHCG (ECHCG [25]): 100%
pre-emergence activity against AMARE (AMARE): 90%
pre-emergence activity against POAAN (POAAN [6]; [37]): 100%
pre-emergence activity against ALOMY (ALOMY [26]): 90%
pre-emergence activity against ECHCG (ECHCG [7]; application rate 1280 g/ha): 100%
post-emergence activity against TRZAS (TRZAS [28]): 0%
post-emergence activity against ORYZA (ORYZA [29]): 0%
post-emergence activity against SETVI (SETVI [8]; application rate 1280 g/ha): 90%
pre-emergence activity against MATIN (MATIN [9]; application rate 320 g/ha): 90%
pre-emergence activity against DIGSA (DIGSA [31]): 80%
post-emergence activity against BRSNW (BRSNW [33]): 0%
pre-emergence activity against ABUTH (ABUTH [34]): 90%
pre-emergence activity against SETVI (SETVI [35]): 100%

SMILES: O=C1N(Cc2ccccc2F)CCCC12CCCN(Cc1ccccc1Br)C2=O (racemic) [I-042]
post-emergence activity against POAAN (POAAN [36]): 90%
post-emergence activity against VERPE (VERPE [2]; application rate 1280 g/ha): 90%
pre-emergence activity against SETVI (SETVI [3]): 90%
pre-emergence activity against LOLRI (LOLRI [5]; application rate 1280 g/ha): 100%
pre-emergence activity against POAAN (POAAN [6]; [37]): 100%
pre-emergence activity against ECHCG (ECHCG [7]; application rate 320 g/ha): 100%
post-emergence activity against ALOMY (ALOMY [10]): 90%
